Legend:
[1] = test system: large crabgrass (Digitaria sanguinalis); test: Glasshouse trial, control of large crabgrass, mesotrione and prodiamine spray applied post-emergence; format: in vivo; details: for control of large crabgrass on its own: spray post-emergence, 14 DAT
Protocol: A glasshouse trial was carried out. Large crabgrass seeds were sown into standard glasshouse potting mix (1:1 v/v Promix:Vero sand soil) contained in 10 cm square plastic pots. Treatments were replicated three times. Mesotrione (in the form Callisto® 480SE) was applied post-emergence to large crabgrass (Digitaria sanguinalis) at either 12 g ai/ha or 24 g ai/ha with or without prodiamine (in the form Barricade® 4FL). When used, prodiamine was applied at a rate of 210 g ai/ha or 420 g ai/ha. The adjuvant system was X-77 at 0.1% v/v in deionised water. 200 litres of herbicide/adjuvant system was used per hectare. General weed control was evaluated at 7 and 14 days after treatment (DAT). It is noted that all herbicides were applied at reduced field rates because herbicide effects are magnified in a glasshouse environment. Rates were chosen to give a 50 to 70% level of control with herbicides applied alone as this allows for detection of any synergistic effect when tank mixtures are used.
The results were evaluated using the Colby formula. The expected result for (A+B) is (A+B)−(A×B/100) where A and B are the ‘observed’ results for A and B on their own.

large crabgrass = test: Glasshouse trial, control of large crabgrass, mesotrione and prodiamine spray applied pre-emergence; format: in vivo, Digitaria sanguinalis; details: for control of large crabgrass on its own: spray pre-emergence, 7 DAT
Protocol: A glasshouse trial was carried out. Large crabgrass seeds were sown into standard glasshouse potting mix (1:1 v/v Promix:Vero sand soil) contained in 10 cm square plastic pots. Treatments were replicated three times. Mesotrione (in the form Callisto® 480SE) was applied pre-emergence to large crabgrass at either 12 g ai/ha or 24 g ai/ha with or without prodiamine (in the form Barricade® 4FL). When used, prodiamine was applied at a rate of 53 g ai/ha or 105 g ai/ha. The adjuvant system was X-77 at 0.1% v/v in deionised water. 200 litres of herbicide/adjuvant system was used per hectare. General weed control was evaluated at 7 and 14 days after treatment (DAT).
It is noted that control of large crabgrass with mesotrione alone applied pre-emergence at the higher rate (24 g ai/ha) was high; thus it was not possible to detect synergy when mesotrione was mixed with prodiamine. […] The results were evaluated using the Colby formula. The expected result for (A+B) is (A+B)−(A×B/100) where A and B are the ‘observed’ results for A and B on their own.

## CCCN(CCC)c1c([N+](=O)[O-])cc(C(F)(F)F)c(N)c1[N+](=O)[O-] [Prodiamine, N^3,N^3-di-n-propyl-2,4-dinitro-6-(trifluoromethyl)-m-phenylenediamine]
[1]; prodiamine alone, 210 or 420 g ai/ha
  control of large crabgrass on its own: no control
Large crabgrass; prodiamine alone, 105 g ai/ha
  control of large crabgrass on its own: 76%

## CS(=O)(=O)c1ccc(C(=O)C2C(=O)CCCC2=O)c([N+](=O)[O-])c1 [Mesotrione, 2-(2′-nitro-4′-methylsulphonylbenzoyl)-1,3-cyclohexanedione]
[1]; mesotrione alone at the higher rate (24 g ai/ha)
  control of large crabgrass on its own: 66.7%
[1]; mesotrione alone at the lower rate (12 g ai/ha)
  control of large crabgrass on its own: 46.7%
[1]; post-emergence, 7 DAT
  control of large crabgrass with mesotrione alone: relatively high
Large crabgrass; mesotrione alone, 12 g ai/ha
  control of large crabgrass on its own: 50%
Large crabgrass; pre-emergence at the higher rate (24 g ai/ha)
  control of large crabgrass with mesotrione alone: high

Reference: patent publication US20100113272A1, “HERBICIDAL COMPOSITION AND METHOD OF USE THEREOF” (SYNGENTA CORP PROTECTION, INC., priority 2006, published 2010)
